These results are taken from ChEMBL document CHEMBL1149322, “Carbonic anhydrase inhibitors. Inhibition of mitochondrial isozyme V with aromatic and heterocyclic sulfonamides” (J Med Chem, 2004).

The target in one assay is T1, Carbonic anhydrase 4 (Bos taurus, UniProt Q95323).
T1 sequence (Q95323 whole entry): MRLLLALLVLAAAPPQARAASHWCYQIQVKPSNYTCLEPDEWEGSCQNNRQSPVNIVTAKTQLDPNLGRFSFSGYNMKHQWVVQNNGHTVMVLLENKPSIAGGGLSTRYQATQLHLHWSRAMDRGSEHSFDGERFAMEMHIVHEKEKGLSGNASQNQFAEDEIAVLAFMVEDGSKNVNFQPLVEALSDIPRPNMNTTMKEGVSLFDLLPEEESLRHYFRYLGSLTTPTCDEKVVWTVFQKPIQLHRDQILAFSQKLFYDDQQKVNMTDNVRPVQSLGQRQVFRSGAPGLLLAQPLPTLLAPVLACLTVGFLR

A further assay has as its target Carbonic anhydrase 2 (Homo sapiens, UniProt P00918).
A further assay concerns the target Carbonic anhydrase 1 (Homo sapiens, UniProt P00915).

Carbonic anhydrase 1, sequence (P00915 whole entry): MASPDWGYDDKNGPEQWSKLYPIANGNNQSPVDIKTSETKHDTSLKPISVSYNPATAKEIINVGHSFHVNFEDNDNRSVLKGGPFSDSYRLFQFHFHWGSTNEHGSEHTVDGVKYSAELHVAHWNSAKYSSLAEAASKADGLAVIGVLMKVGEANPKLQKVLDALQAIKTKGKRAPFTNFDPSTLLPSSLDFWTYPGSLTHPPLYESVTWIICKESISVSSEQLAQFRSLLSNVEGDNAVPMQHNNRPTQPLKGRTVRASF

Broadly, the Ki is the dissociation constant of the complex between target and ligand, obtained from inhibition or displacement. Read a high Ki as weaker binding. In turn, `CCN[C@H]1CC(CCCOC)S(=O)(=O)c2sc(S(N)(=O)=O)cc21` (stereo not given in full) gave a Ki on Carbonic anhydrase 4 of 45 nM.
Regarding `CC(=O)Nc1ccc(S(=O)(=O)Nc2nnc(S(N)(=O)=O)s2)cc1Br`, the figures for the Ki at Carbonic anhydrase 2 and on Carbonic anhydrase 4 were 2 nM and 4 nM, respectively.
For `CCCCCC(=O)Nc1ccc(S(N)(=O)=O)cc1`, the figures for the inhibition constant (Ki) at Carbonic anhydrase 2, on Carbonic anhydrase 4 and at Carbonic anhydrase 1 were 63 nM, 980 nM and 14200 nM, respectively.
Take `NS(=O)(=O)c1ccc(CCNC(=O)c2cc3ccccc3oc2=O)cc1`: at Carbonic anhydrase 1, the inhibitory constant (Ki) is 66 nM.
At Carbonic anhydrase 4, `NS(=O)(=O)c1ccc(CNS(=O)(=O)c2ccccc2)cc1` had a Ki of 64 nM.
The same measure, in the same setting: under `CC(C)(C)C(=O)Nc1ccc(S(N)(=O)=O)cc1` stands 2550 nM.
For `CC(=O)Nc1ccc(S(=O)(=O)NCCc2ccc(S(N)(=O)=O)cc2)cc1`, the results for the Ki on Carbonic anhydrase 2, on Carbonic anhydrase 4 and on Carbonic anhydrase 1 were 75 nM, 119 nM and 187 nM, respectively.
For `CC(C)C(=O)Nc1ccc(S(N)(=O)=O)cc1`, on Carbonic anhydrase 4, the inhibition constant Ki stood at 2840 nM.
In the case of `CC(=O)Nc1ccc(S(=O)(=O)Nc2nnc(S(N)(=O)=O)s2)cc1Cl`, the Ki was 1 nM at Carbonic anhydrase 2, 4 nM on Carbonic anhydrase 4 and 5 nM at Carbonic anhydrase 1.
`NS(=O)(=O)c1ccc(NC(=O)c2ccccc2)cc1` registered an inhibition constant (Ki) on Carbonic anhydrase 4 of 176 nM.
Regarding `CC(C)(C)C(=O)Nc1nnc(S(N)(=O)=O)s1`, the Ki on Carbonic anhydrase 4 turned out to be 185 nM; on Carbonic anhydrase 1, 645 nM.
`CCCC(=O)Nc1ccc(S(N)(=O)=O)cc1`: on Carbonic anhydrase 4, the inhibitory constant (Ki) came out at 2540 nM.
As to `NS(=O)(=O)c1ccc(CCNS(=O)(=O)c2ccccc2)cc1`, the Ki on Carbonic anhydrase 2 is 28 nM; at Carbonic anhydrase 4, 39 nM; at Carbonic anhydrase 1 it was 69 nM.
The like results for `NS(=O)(=O)c1ccc(NS(=O)(=O)c2ccc([N+](=O)[O-])cc2)cc1` were, in that order, 10 nM, 22 nM and 31 nM.
On Carbonic anhydrase 1, `NS(=O)(=O)c1ccc(CNC(=O)c2cc3ccccc3oc2=O)cc1` registered an inhibition constant (Ki) of 69 nM. This counts as double-digit nanomolar.
`NS(=O)(=O)c1ccc(NS(=O)(=O)c2ccccc2)cc1`: the inhibition constant Ki on Carbonic anhydrase 4 was determined as 85 nM.
For the molecule `NS(=O)(=O)c1ccc(NS(=O)(=O)c2ccc(F)cc2)cc1`, the Ki came out at 9 nM at Carbonic anhydrase 2, 15 nM on Carbonic anhydrase 4 and 40 nM at Carbonic anhydrase 1.
With `NS(=O)(=O)c1ccc(NC(=O)c2cc3ccccc3oc2=O)cc1`, on Carbonic anhydrase 1, the affinity, expressed as Ki, was 74 nM.
Regarding `NS(=O)(=O)c1ccc(/N=C\c2ncc[nH]2)cc1`, the figures for the Ki at Carbonic anhydrase 2, on Carbonic anhydrase 4 and at Carbonic anhydrase 1 were 120 nM, 130 nM and 1000 nM, respectively.
Take `Cn1nc(S(N)(=O)=O)s/c1=N/C(=O)CCCCC(F)(F)C(F)(F)F`: the figures for the Ki on Carbonic anhydrase 4 and on Carbonic anhydrase 1 were 8 nM and 270 nM, respectively.
With `NS(=O)(=O)c1ccc(CCNC(=O)Nc2ccc(Cl)c(Cl)c2)cc1`, the Ki was determined as 13 nM on Carbonic anhydrase 2, 20 nM on Carbonic anhydrase 4 and 12 nM on Carbonic anhydrase 1.
In the case of `CCC(=O)Nc1ccc(S(N)(=O)=O)cc1`, the Ki at Carbonic anhydrase 4 came out at 2630 nM.
For `CC(=O)Nc1ccc(S(=O)(=O)Nc2nnc(S(N)(=O)=O)s2)cc1F`, the Ki at Carbonic anhydrase 2 stood at 1 nM; at Carbonic anhydrase 1, 6 nM.
With `NS(=O)(=O)c1ccc(CNC(=O)Nc2ccccc2)cc1`, the Ki at Carbonic anhydrase 4 amounted to 140 nM; on Carbonic anhydrase 1, 800 nM.
For `Cn1nc(S(N)(=O)=O)s/c1=N/C(=O)c1ccccc1`, the inhibition constant (Ki) is 17 nM at Carbonic anhydrase 2, 174 nM on Carbonic anhydrase 4 and 850 nM at Carbonic anhydrase 1.
As to `NS(=O)(=O)c1ccc(NC(=O)CCCCC(F)(F)C(F)(F)F)cc1`, the values for the Ki on Carbonic anhydrase 4 and at Carbonic anhydrase 1 were 600 nM and 950 nM, respectively.
For `NS(=O)(=O)c1nnc(NC(=O)c2ccccc2)s1` the same measures were 163 nM and 900 nM.
Consider `CC(=O)Nc1ccc(S(=O)(=O)Nc2nnc(S(N)(=O)=O)s2)cc1`, for which the figures for the Ki at Carbonic anhydrase 2 and at Carbonic anhydrase 4 were 3 nM and 8 nM, respectively.
For `Cn1nc(S(N)(=O)=O)s/c1=N/C(=O)c1ccco1`, the Ki came out at 6 nM on Carbonic anhydrase 2, 30 nM at Carbonic anhydrase 4 and 290 nM on Carbonic anhydrase 1.
`CCCCC(=O)Nc1ccc(S(N)(=O)=O)cc1` came in with a Ki at Carbonic anhydrase 4 of 2370 nM.
With `NS(=O)(=O)c1nnc(NC(=O)CCCCC(F)(F)C(F)(F)F)s1`, the Ki at Carbonic anhydrase 2 turned out to be 2 nM; on Carbonic anhydrase 4, 10 nM; at Carbonic anhydrase 1, 250 nM.
`NS(=O)(=O)c1ccc(NC(=O)C(F)(F)F)cc1`: the inhibitory constant (Ki) at Carbonic anhydrase 4 worked out at 2100 nM. This lies in the single-digit micromolar range.
Regarding `CC(=O)Nc1ccc(S(N)(=O)=O)cc1`, the Ki amounted to 246 nM at Carbonic anhydrase 2, 2850 nM on Carbonic anhydrase 4 and 21400 nM on Carbonic anhydrase 1.
